Measurements as given in the kinase profiling compilation of Christmann-Franck et al. (2016).

Key:
Assay in all cases: KINOMEscan competition binding
[1] = system: ABL1 (human), P00519 [Y253F]
[2] = biological target: AKT2 (human) (UniProt P31751)
[3] = biological target: AURKB (human) (UniProt Q96GD4)
[4] = biological target: AURKC (human) (UniProt Q9UQB9)
[5] = biological target: CDK11B (human) (UniProt P21127)
[6] = biological target: CHUK (human) (UniProt O15111)
[7] = biological target: CIT (human) (UniProt O14578)
[8] = biological target: CLK3 (human) (UniProt P49761)
[9] = biological target: CSNK1A1L (human) (UniProt Q8N752)
[10] = biological target: CSNK2A2 (human) (UniProt P19784)
[11] = biological target: DCLK2 (human) (UniProt Q8N568)
[12] = biological target: DYRK2 (human) (UniProt Q92630)
[13] = system: EGFR (human), P00533 [A750P; 747-749 del]
[14] = biological target: EPHA8 (human) (UniProt P29322)
[15] = system: FLT3 (human), P36888 [R834Q]
[16] = biological target: GSK3B (human) (UniProt P49841)
[17] = system: KIT (human), P10721 [A829P]
[18] = biological target: LYN (human) (UniProt P07948)
[19] = biological target: MAP3K11 (human) (UniProt Q16584)
[20] = biological target: MAP3K5 (human) (UniProt Q99683)
[21] = biological target: MAP4K1 (human) (UniProt Q92918)
[22] = biological target: MATK (human) (UniProt P42679)
[23] = biological target: MUSK (human) (UniProt O15146)
[24] = biological target: NEK11 (human) (UniProt Q8NG66)
[25] = biological target: PAK7 (human) (UniProt Q9P286)
[26] = biological target: PHKG2 (human) (UniProt P15735)
[27] = biological target: PIP4K2C (human) (UniProt Q8TBX8)
[28] = biological target: PIP5K1A (human) (UniProt Q99755)
[29] = biological target: PKMYT1 (human) (UniProt Q99640)
[30] = biological target: PKN1 (human) (UniProt Q16512)
[31] = biological target: PLK2 (human) (UniProt Q9NYY3)
[32] = biological target: PRKCD (human) (UniProt Q05655)
[33] = biological target: RET (human) (UniProt P07949)
[34] = system: RET (human), P07949 [V804M]
[35] = biological target: STK24 (human) (UniProt Q9Y6E0)
[36] = biological target: STK35 (human) (UniProt Q8TDR2)
[37] = biological target: TAOK1 (human) (UniProt Q7L7X3)
[38] = biological target: TAOK2 (human) (UniProt Q9UL54)
[39] = biological target: TIE1 (human) (UniProt P35590)
[40] = biological target: TLK2 (human) (UniProt Q86UE8)
[41] = biological target: TTK (human) (UniProt P33981)
[42] = biological target: TXK (human) (UniProt P42681)
[43] = biological target: ULK1 (human) (UniProt O75385)

AKT2 (human), sequence (P31751 whole entry, looked up): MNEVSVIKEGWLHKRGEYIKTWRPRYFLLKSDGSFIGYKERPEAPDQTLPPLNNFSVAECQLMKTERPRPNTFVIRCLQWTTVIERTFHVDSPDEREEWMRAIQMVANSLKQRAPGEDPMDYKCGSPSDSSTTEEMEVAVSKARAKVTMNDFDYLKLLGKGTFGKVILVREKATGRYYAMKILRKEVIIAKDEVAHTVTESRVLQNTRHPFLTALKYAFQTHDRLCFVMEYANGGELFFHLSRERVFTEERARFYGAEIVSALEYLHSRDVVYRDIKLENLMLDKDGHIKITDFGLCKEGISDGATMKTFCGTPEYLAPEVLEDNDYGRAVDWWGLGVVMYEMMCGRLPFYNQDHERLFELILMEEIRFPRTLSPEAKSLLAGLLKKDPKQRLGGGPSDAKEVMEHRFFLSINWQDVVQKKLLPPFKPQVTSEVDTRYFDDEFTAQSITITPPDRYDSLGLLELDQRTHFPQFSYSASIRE
AURKC (human), sequence (Q9UQB9 whole entry, looked up): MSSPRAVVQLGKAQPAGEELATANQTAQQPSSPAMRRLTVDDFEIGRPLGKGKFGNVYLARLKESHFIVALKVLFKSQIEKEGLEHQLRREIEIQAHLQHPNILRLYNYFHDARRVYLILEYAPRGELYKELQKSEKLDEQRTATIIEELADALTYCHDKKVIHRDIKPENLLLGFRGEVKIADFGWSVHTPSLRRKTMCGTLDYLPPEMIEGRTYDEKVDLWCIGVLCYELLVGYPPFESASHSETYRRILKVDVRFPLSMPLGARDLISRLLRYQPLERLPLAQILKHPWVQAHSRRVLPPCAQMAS
PKMYT1 (human), sequence (Q99640 whole entry, looked up): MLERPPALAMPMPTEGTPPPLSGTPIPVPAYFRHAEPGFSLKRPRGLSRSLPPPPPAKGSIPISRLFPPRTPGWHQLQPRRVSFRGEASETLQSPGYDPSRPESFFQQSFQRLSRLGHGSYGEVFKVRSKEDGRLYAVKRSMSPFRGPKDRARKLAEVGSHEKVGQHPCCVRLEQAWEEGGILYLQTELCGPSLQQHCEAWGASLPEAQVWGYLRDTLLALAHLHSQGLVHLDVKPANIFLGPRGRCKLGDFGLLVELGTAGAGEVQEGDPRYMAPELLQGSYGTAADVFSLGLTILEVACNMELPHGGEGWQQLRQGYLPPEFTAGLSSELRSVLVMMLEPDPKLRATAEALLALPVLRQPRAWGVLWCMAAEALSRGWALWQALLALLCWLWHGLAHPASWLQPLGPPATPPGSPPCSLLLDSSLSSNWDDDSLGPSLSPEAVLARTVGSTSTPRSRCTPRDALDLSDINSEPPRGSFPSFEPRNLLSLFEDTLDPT
CSNK1A1L (human), sequence (Q8N752 whole entry, looked up): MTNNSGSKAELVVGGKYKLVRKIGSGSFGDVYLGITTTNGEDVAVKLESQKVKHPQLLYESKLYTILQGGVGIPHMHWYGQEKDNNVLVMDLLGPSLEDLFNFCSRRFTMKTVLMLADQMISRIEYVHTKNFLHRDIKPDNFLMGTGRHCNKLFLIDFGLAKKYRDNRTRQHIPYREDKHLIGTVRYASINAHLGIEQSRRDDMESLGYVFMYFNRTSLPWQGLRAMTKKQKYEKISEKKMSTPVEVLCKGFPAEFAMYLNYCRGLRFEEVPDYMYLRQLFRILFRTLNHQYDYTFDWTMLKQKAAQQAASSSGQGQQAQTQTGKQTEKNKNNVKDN
PIP4K2C (human), sequence (Q8TBX8 whole entry, looked up): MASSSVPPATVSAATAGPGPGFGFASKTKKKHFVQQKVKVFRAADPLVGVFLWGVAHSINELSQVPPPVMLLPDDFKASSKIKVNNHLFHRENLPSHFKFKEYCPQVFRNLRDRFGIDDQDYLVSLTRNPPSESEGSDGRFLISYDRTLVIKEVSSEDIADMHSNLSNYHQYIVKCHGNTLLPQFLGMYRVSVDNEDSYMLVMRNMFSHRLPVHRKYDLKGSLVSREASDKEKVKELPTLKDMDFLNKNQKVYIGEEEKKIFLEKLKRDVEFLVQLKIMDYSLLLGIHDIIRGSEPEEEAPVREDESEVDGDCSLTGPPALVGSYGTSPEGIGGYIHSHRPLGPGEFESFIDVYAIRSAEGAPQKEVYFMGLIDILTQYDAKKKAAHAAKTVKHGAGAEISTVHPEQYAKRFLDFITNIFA
PHKG2 (human), sequence (P15735 whole entry, looked up): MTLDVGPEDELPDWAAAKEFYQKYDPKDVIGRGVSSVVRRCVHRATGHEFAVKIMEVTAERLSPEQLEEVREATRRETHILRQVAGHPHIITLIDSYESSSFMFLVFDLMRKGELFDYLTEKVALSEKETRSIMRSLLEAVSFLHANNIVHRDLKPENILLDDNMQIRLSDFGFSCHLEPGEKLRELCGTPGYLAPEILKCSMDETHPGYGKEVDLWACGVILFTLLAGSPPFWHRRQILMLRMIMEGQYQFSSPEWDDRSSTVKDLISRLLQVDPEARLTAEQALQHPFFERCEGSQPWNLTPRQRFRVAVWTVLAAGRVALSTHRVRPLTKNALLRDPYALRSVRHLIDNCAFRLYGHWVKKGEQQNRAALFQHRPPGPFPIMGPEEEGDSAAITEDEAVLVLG
DYRK2 (human), sequence (Q92630 whole entry, looked up): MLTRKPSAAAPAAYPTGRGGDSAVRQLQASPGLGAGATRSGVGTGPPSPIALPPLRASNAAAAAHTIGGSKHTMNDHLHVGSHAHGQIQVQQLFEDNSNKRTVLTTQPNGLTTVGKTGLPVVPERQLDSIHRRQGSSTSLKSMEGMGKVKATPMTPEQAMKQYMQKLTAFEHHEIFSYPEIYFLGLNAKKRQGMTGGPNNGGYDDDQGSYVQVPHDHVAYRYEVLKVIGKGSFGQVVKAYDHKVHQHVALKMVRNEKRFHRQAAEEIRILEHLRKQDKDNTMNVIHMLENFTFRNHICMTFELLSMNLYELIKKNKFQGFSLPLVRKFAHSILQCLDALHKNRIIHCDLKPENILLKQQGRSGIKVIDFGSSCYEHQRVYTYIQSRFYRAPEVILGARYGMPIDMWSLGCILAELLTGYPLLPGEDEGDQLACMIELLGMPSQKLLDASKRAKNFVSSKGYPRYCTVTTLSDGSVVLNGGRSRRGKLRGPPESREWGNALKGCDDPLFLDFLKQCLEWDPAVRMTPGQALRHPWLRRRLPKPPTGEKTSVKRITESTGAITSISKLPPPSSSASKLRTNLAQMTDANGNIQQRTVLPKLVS
RET (human), sequence (P07949 whole entry, looked up): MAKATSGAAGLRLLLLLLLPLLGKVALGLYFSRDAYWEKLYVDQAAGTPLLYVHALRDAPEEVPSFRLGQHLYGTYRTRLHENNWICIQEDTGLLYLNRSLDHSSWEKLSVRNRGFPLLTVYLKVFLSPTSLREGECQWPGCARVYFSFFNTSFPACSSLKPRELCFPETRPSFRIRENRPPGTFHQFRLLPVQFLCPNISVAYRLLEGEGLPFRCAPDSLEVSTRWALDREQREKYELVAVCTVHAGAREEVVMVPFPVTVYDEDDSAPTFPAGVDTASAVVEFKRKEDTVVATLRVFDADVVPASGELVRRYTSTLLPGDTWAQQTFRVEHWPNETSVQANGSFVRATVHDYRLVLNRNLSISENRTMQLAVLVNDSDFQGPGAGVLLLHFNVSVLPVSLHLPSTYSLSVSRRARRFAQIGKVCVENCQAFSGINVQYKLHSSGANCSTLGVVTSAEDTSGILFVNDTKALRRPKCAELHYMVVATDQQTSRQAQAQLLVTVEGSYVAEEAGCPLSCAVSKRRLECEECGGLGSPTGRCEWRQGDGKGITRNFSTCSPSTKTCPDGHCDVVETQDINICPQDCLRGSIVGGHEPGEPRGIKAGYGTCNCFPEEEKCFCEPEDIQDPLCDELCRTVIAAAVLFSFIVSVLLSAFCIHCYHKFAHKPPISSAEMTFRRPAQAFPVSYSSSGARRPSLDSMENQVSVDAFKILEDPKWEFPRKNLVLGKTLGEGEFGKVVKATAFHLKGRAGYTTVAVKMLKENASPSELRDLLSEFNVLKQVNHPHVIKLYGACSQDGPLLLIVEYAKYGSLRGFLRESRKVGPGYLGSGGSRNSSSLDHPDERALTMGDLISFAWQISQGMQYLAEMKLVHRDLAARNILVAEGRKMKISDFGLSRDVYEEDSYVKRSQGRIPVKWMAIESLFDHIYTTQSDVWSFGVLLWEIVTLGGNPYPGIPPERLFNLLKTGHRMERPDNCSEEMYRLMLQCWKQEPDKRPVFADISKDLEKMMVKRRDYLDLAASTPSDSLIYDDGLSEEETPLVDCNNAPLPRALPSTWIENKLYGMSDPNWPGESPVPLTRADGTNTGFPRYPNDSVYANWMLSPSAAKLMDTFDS
CDK11B (human), sequence (P21127 whole entry, looked up): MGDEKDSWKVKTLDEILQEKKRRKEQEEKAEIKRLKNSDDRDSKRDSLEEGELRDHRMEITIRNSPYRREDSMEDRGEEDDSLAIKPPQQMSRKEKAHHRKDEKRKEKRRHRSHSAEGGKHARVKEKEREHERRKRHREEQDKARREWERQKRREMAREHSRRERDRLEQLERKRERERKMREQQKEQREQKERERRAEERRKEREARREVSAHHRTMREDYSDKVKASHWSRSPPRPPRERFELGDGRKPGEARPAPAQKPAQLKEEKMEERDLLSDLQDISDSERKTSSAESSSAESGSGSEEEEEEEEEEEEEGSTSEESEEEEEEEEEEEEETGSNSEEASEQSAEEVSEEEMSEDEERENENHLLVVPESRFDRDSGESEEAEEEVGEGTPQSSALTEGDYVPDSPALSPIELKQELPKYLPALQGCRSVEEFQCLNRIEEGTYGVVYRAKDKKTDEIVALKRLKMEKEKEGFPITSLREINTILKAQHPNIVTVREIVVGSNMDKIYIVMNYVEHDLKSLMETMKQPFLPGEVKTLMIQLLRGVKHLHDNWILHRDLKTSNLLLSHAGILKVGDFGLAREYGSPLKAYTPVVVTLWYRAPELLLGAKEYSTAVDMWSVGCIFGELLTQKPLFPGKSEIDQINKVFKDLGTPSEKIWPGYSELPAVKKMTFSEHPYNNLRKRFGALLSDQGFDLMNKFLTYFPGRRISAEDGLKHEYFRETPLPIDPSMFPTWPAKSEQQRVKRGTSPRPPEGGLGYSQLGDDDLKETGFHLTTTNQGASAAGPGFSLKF
RET (human), P07949 [V804M], sequence (P07949 whole entry V804M, looked up): as the sequence (P07949 whole entry, looked up) above, with V804M counted along it

**Q.** Which results are given for `Cc1cc(NC(=O)c2cccc(NC(=O)/C=C/CN(C)C)c2)ccc1Nc1nccc(-c2cccnc2)n1`?
**A.** kinase still bound, per cent of control ([1]; compound 1.0 µM): 71%; kinase still bound, per cent of control ([2]; compound 1.0 µM): 100%; kinase still bound, per cent of control ([3]; compound 1.0 µM): 82%; kinase still bound, per cent of control ([4]; compound 1.0 µM): 95%; kinase still bound, per cent of control ([5]; compound 1.0 µM): 100%; kinase still bound, per cent of control ([6]; compound 1.0 µM): 100%; kinase still bound, per cent of control ([7]; compound 1.0 µM): 100%; kinase still bound, per cent of control ([8]; compound 1.0 µM): 100%; kinase still bound, per cent of control ([9]; compound 1.0 µM): 71%; kinase still bound, per cent of control ([10]; compound 1.0 µM): 39%; kinase still bound, per cent of control ([11]; compound 1.0 µM): 94%; kinase still bound, per cent of control ([12]; compound 1.0 µM): 20%; kinase still bound, per cent of control ([13]; compound 1.0 µM): 84%; kinase still bound, per cent of control ([14]; compound 1.0 µM): 100%; kinase still bound, per cent of control ([15]; compound 1.0 µM): 100%; kinase still bound, per cent of control ([16]; compound 1.0 µM): 100%; kinase still bound, per cent of control ([17]; compound 1.0 µM): 69%; kinase still bound, per cent of control ([18]; compound 1.0 µM): 87%; kinase still bound, per cent of control ([19]; compound 1.0 µM): 91%; kinase still bound, per cent of control ([20]; compound 1.0 µM): 100%; kinase still bound, per cent of control ([21]; compound 1.0 µM): 89%; kinase still bound, per cent of control ([22]; compound 1.0 µM): 81%; kinase still bound, per cent of control ([23]; compound 1.0 µM): 100%; kinase still bound, per cent of control ([24]; compound 1.0 µM): 99%; kinase still bound, per cent of control ([25]; compound 1.0 µM): 88%; kinase still bound, per cent of control ([26]; compound 1.0 µM): 89%; kinase still bound, per cent of control ([27]; compound 1.0 µM): 46%; kinase still bound, per cent of control ([28]; compound 1.0 µM): 75%; kinase still bound, per cent of control ([29]; compound 1.0 µM): 69%; kinase still bound, per cent of control ([30]; compound 1.0 µM): 94%; kinase still bound, per cent of control ([31]; compound 1.0 µM): 79%; kinase still bound, per cent of control ([32]; compound 1.0 µM): 100%; kinase still bound, per cent of control ([33]; compound 1.0 µM): 100%; kinase still bound, per cent of control ([34]; compound 1.0 µM): 100%; kinase still bound, per cent of control ([35]; compound 1.0 µM): 79%; kinase still bound, per cent of control ([36]; compound 1.0 µM): 68%; kinase still bound, per cent of control ([37]; compound 1.0 µM): 67%; kinase still bound, per cent of control ([38]; compound 1.0 µM): 73%; kinase still bound, per cent of control ([39]; compound 1.0 µM): 91%; kinase still bound, per cent of control ([40]; compound 1.0 µM): 100%; kinase still bound, per cent of control ([41]; compound 1.0 µM): 46%; kinase still bound, per cent of control ([42]; compound 1.0 µM): 96%; kinase still bound, per cent of control ([43]; compound 1.0 µM): 100%

**Q.** For `Cc1ccc(NC(=O)c2ccc(NC(=O)/C=C/CN(C)C)cc2)cc1Nc1nccc(-c2cccnc2)n1`, which kinase still bound, per cent of control ([1]; compound 10.0 µM) is on record?
**A.** Its kinase still bound, per cent of control is 39%.

**Q.** And the kinase still bound, per cent of control ([2]; compound 10.0 µM)?
**A.** Its kinase still bound, per cent of control is 100%.

**Q.** What about the kinase still bound, per cent of control ([3]; compound 10.0 µM) of the same compound?
**A.** The kinase still bound, per cent of control was 86%.

**Q.** What about the kinase still bound, per cent of control ([4]; compound 10.0 µM) of the same compound?
**A.** Its kinase still bound, per cent of control is 67%.

**Q.** And the kinase still bound, per cent of control ([5]; compound 10.0 µM)?
**A.** The kinase still bound, per cent of control was 100%.

**Q.** And the kinase still bound, per cent of control ([6]; compound 10.0 µM)?
**A.** Its kinase still bound, per cent of control is 70%.

**Q.** And the kinase still bound, per cent of control ([7]; compound 10.0 µM)?
**A.** Its kinase still bound, per cent of control is 59%.

**Q.** And the kinase still bound, per cent of control ([8]; compound 10.0 µM)?
**A.** The kinase still bound, per cent of control was 93%.

**Q.** What about the kinase still bound, per cent of control ([9]; compound 10.0 µM) of the same compound?
**A.** Its kinase still bound, per cent of control is 100%.

**Q.** What about the kinase still bound, per cent of control ([10]; compound 10.0 µM) of the same compound?
**A.** Its kinase still bound, per cent of control is 21%.

**Q.** And the kinase still bound, per cent of control ([11]; compound 10.0 µM)?
**A.** The kinase still bound, per cent of control was 100%.

**Q.** What about the kinase still bound, per cent of control ([12]; compound 10.0 µM) of the same compound?
**A.** The kinase still bound, per cent of control was 36%.

**Q.** And the kinase still bound, per cent of control ([13]; compound 10.0 µM)?
**A.** Its kinase still bound, per cent of control is 59%.

**Q.** What about the kinase still bound, per cent of control ([14]; compound 10.0 µM) of the same compound?
**A.** Its kinase still bound, per cent of control is 81%.

**Q.** And the kinase still bound, per cent of control ([15]; compound 10.0 µM)?
**A.** Its kinase still bound, per cent of control is 56%.

**Q.** And the kinase still bound, per cent of control ([16]; compound 10.0 µM)?
**A.** Its kinase still bound, per cent of control is 87%.

**Q.** And the kinase still bound, per cent of control ([17]; compound 10.0 µM)?
**A.** Its kinase still bound, per cent of control is 17%.

**Q.** And the kinase still bound, per cent of control ([18]; compound 10.0 µM)?
**A.** The kinase still bound, per cent of control was 54%.

**Q.** And the kinase still bound, per cent of control ([19]; compound 10.0 µM)?
**A.** The kinase still bound, per cent of control was 100%.

**Q.** And the kinase still bound, per cent of control ([20]; compound 10.0 µM)?
**A.** Its kinase still bound, per cent of control is 100%.

**Q.** And the kinase still bound, per cent of control ([21]; compound 10.0 µM)?
**A.** Its kinase still bound, per cent of control is 90%.

**Q.** And the kinase still bound, per cent of control ([22]; compound 10.0 µM)?
**A.** The kinase still bound, per cent of control was 45%.

**Q.** And the kinase still bound, per cent of control ([23]; compound 10.0 µM)?
**A.** The kinase still bound, per cent of control was 99%.

**Q.** And the kinase still bound, per cent of control ([24]; compound 10.0 µM)?
**A.** The kinase still bound, per cent of control was 78%.

**Q.** And the kinase still bound, per cent of control ([25]; compound 10.0 µM)?
**A.** The kinase still bound, per cent of control was 72%.

**Q.** And the kinase still bound, per cent of control ([26]; compound 10.0 µM)?
**A.** Its kinase still bound, per cent of control is 86%.

**Q.** What about the kinase still bound, per cent of control ([27]; compound 10.0 µM) of the same compound?
**A.** The kinase still bound, per cent of control was 2%.

**Q.** What about the kinase still bound, per cent of control ([28]; compound 10.0 µM) of the same compound?
**A.** Its kinase still bound, per cent of control is 8%.

**Q.** What about the kinase still bound, per cent of control ([29]; compound 10.0 µM) of the same compound?
**A.** Its kinase still bound, per cent of control is 79%.

**Q.** And the kinase still bound, per cent of control ([30]; compound 10.0 µM)?
**A.** Its kinase still bound, per cent of control is 100%.

**Q.** And the kinase still bound, per cent of control ([31]; compound 10.0 µM)?
**A.** The kinase still bound, per cent of control was 34%.

**Q.** And the kinase still bound, per cent of control ([32]; compound 10.0 µM)?
**A.** Its kinase still bound, per cent of control is 96%.

**Q.** What about the kinase still bound, per cent of control ([33]; compound 10.0 µM) of the same compound?
**A.** The kinase still bound, per cent of control was 99%.

**Q.** And the kinase still bound, per cent of control ([34]; compound 10.0 µM)?
**A.** Its kinase still bound, per cent of control is 100%.

**Q.** And the kinase still bound, per cent of control ([35]; compound 10.0 µM)?
**A.** Its kinase still bound, per cent of control is 86%.

**Q.** And the kinase still bound, per cent of control ([36]; compound 10.0 µM)?
**A.** Its kinase still bound, per cent of control is 82%.

**Q.** And the kinase still bound, per cent of control ([37]; compound 10.0 µM)?
**A.** Its kinase still bound, per cent of control is 46%.

**Q.** What about the kinase still bound, per cent of control ([38]; compound 10.0 µM) of the same compound?
**A.** The kinase still bound, per cent of control was 61%.

**Q.** And the kinase still bound, per cent of control ([39]; compound 10.0 µM)?
**A.** The kinase still bound, per cent of control was 80%.

**Q.** And the kinase still bound, per cent of control ([40]; compound 10.0 µM)?
**A.** Its kinase still bound, per cent of control is 100%.

**Q.** What about the kinase still bound, per cent of control ([41]; compound 10.0 µM) of the same compound?
**A.** Its kinase still bound, per cent of control is 83%.

**Q.** And the kinase still bound, per cent of control ([42]; compound 10.0 µM)?
**A.** The kinase still bound, per cent of control was 94%.

**Q.** And the kinase still bound, per cent of control ([43]; compound 10.0 µM)?
**A.** The kinase still bound, per cent of control was 23%.
